{"source": "paper PMC11242993", "about": "“Evaluation of the Therapeutic Potential of Sulfonyl Urea Derivatives as Soluble Epoxide Hydrolase (sEH) Inhibitors” (Molecules, 2024)", "key": {"mice": {"system": "mice", "assay": "LPS-induced acute lung injury (ALI) model", "type": "in vivo", "conditions": "10 mg/kg i.p.", "procedure": "LPS-induced acute lung injury induced by a single oropharyngeal instillation of lipopolysaccharide (LPS) (50 µg/mouse) in 16-week-old mice as described previously. Briefly, LPS (L4391, MilliporeSigma, Burlington, MA, USA) was dissolved in sterile saline and administered at 50 µg/mouse in 40 µL after anesthesia induced by ketamine/xylazine. The mice were studied 24 h after LPS or saline instillation.\nBALF was collected from anesthetized mice by lavaging lungs two times with 0.8 mL Hanks’ balanced salt solution without calcium and magnesium (HBSS) (Sigma-Aldrich, St. Louis, MI, USA). Supernatants were collected as BALF for further analyses.\nThe number of cells in the BALF was estimated using an automated cell counter, the Countess II FL cell counter (Thermo Fisher Scientific Inc., Waltham, MA, USA).\nAlbumin levels were measured by the Mouse Albumin Elisa Assay kit (Cat # E99-134), which was obtained from Bethyl Laboratories. BALF samples from the LPS group were diluted at a 1:2000 ratio.\nTotal protein in BALF samples was measured using the Pierce BCA protein assay kit (Cat # 23225) as detailed in the product manual (Thermo Fisher Scientific).\nThe right middle lobe was immediately placed in an RNA later solution and stored at −80 °C until the RNA extraction procedure. RNA extraction was performed using RNeasy Mini Kits from Qiagen (Valencia, CA, USA). One microgram of total RNA was reverse transcribed to cDNA using an iScript cDNA synthesis kit (Bio-Rad, Hercules, CA, USA). Expression of the target genes was quantified using gene-specific primers and PowerSYBRGreen master mix (Thermo Fisher Scientific) in a QuantStudio 3 Real-Time PCR instrument (Thermo Fisher Scientific). Predesigned mouse IL-6 (QT00098875), TNF-α (QT00104006), IL-1β (QT01048355), CXCL1 (QT00115647), CCL2 (QT00167832), CXCL3 (QT00151599) and CXCL9 (QT00097062) primers were purchased from Qiagen (Valencia, CA, USA). Fold changes in gene expression relative to the housekeeping gene TATA-Box Binding Protein (Tbp, QT00198443) were determined. Gene expression values were calculated based on the […] method."}, "Microsomal stability": {"assay": "Microsomal stability", "type": "in vitro ADME", "conditions": "pH 7.4, human liver microsomes; for remaining at 1 h, 2 μM: read-out: Human Metabolic Stability % Remaining after 1 h; for half-life at 2 μM: read-out: Human Metabolic Stability Half Life", "procedure": "Human microsomal incubations were carried out in 96-well plates in 5 aliquots of 30 μL each (one for each time point). Human liver microsomal incubation medium comprised of phosphate buffer (100 mM, pH 7.4), MgCl2 (3.3 mM), NADPH (3 mM), glucose-6-phosphate (5.3 mM), glucose-6-phosphate dehydrogenase (0.67 units/mL) with 0.42 mg of liver microsomal protein per ml. In the control reactions, the NADPH-cofactor system was substituted with phosphate buffer. Test compounds (2 μM, final solvent concentration 1.6%) were incubated with microsomes at 37 °C and shaken at 100 rpm. Each reaction was performed in duplicates. Five time points over 40 min were analyzed. The reactions were stopped by adding 5 volumes of methanol containing the internal standard to the incubation aliquots, followed by protein sedimentation by centrifuging at 5500 rpm for 4 min. Supernatants were analyzed using the HPLC system coupled with a tandem mass spectrometer."}, "[1]": {"assay": "Plasma protein binding (equilibrium dialysis), mouse", "type": "in vitro ADME", "conditions": "for fraction unbound at 5 h, 1 μM: plasma (non-diluted), pH 7.4, read-out: Plasma Protein Binding Mouse % of Bound Comp (converted)", "procedure": "The assay was performed in a multiple-use 96-well dialysis unit (HTD96b dialyzer). Each individual well unit consisted of 2 chambers separated by a vertically aligned dialysis membrane of predetermined pore size (MWCO 12–14 kDa). An amount of 120 μL of non-diluted plasma spiked with the compound (1 μM, final DMSO concentration 1%) was added to one chamber, and the same volume of PBS buffer with pH 7.4 was added to the other chamber. The HTD96b dialyzer was covered with adhesive sealing film and incubated at 37 °C and shaken at 100 rpm for 5 h. For sample preparation, an aliquot of the content of each chamber was mixed with the same volume of the blank opposite matrix. To define the non-specific loss of the compound during this assay, a standard solution was created by mixing an aliquot of spiked plasma with a blank buffer without dialysis. Two aliquots of the standard solution were incubated at 37 °C and shaken at 100 rpm for 5 h (recovery samples). The other two aliquots were immediately diluted with acetonitrile and stored at 4 °C until LC–MS/MS analysis (stability samples). All samples were diluted 5-fold with 100% methanol with subsequent plasma protein sedimentation by centrifuging at 6000 rpm for 5 min. Supernatants were analyzed using the HPLC system coupled with a tandem mass spectrometer."}}, "note": "“Also recorded” adds a separate entry of the source.", "data": [{"smiles": "O=C(NC12CC3CC(CC(C3)C1)C2)NS(=O)(=O)c1ccc(OC(F)(F)F)cc1", "note": "[Compound 4f]", "values": [{"measurement": "effect on LPS-induced increase in total protein in BALF", "setting": "mice", "value": "neither AUDA nor novel sEH inhibitors’ (4f and 4l) effect"}, {"measurement": "number of cells in bronchoalveolar lavage (BAL)", "setting": "mice", "value": "similarly attenuated the number of cells in BAL"}, {"measurement": "LPS-induced lung gene expression of interleukin 1B (IL-1B)", "setting": "mice; qPCR", "value": "attenuated"}, {"measurement": "lung gene expression of CCL-2", "setting": "mice; qPCR", "value": "more pronounced in reducing IL-6 and CCL-2 expressions"}, {"measurement": "lung gene expression of CXCL1", "setting": "mice; qPCR", "value": "similarly attenuated"}, {"measurement": "LPS-induced lung gene expression of interleukin 6 (IL-6)", "setting": "mice; qPCR, 10 mg/kg", "value": "attenuated; also recorded: more pronounced in reducing IL-6 and CCL-2 expressions"}, {"measurement": "remaining at 1 h, 2 μM", "setting": "Microsomal stability", "value": 80, "unit": "%"}, {"measurement": "half-life at 2 μM", "setting": "Microsomal stability", "value": 1.77, "unit": "h"}, {"measurement": "compound recovery/stability in mouse plasma after 5 h incubation (%)", "setting": "[1]", "value": 106, "unit": "%"}, {"measurement": "fraction unbound at 5 h, 1 μM", "setting": "[1]", "value": 0.02}]}, {"smiles": "O=C(NC12CC3CC(CC(C3)C1)C2)NS(=O)(=O)c1ccc2ccccc2c1", "note": "[Compound 4l]", "values": [{"measurement": "effect on LPS-induced increase in total protein in BALF", "setting": "mice", "value": "neither AUDA nor novel sEH inhibitors’ (4f and 4l) effect"}, {"measurement": "LPS-induced lung gene expression of interleukin 1B (IL-1B)", "setting": "mice; qPCR", "value": "had no effect on reducing these"}, {"measurement": "LPS-induced lung gene expression of interleukin 6 (IL-6)", "setting": "mice; qPCR", "value": "had no effect on reducing these"}, {"measurement": "remaining at 1 h, 2 μM", "setting": "Microsomal stability", "value": 45, "unit": "%"}, {"measurement": "half-life at 2 μM", "setting": "Microsomal stability", "value": 0.557, "unit": "h"}, {"measurement": "compound recovery/stability in mouse plasma after 5 h incubation (%)", "setting": "[1]", "value": 88, "unit": "%"}, {"measurement": "fraction unbound at 5 h, 1 μM", "setting": "[1]", "value": 0.02}]}]}
